Source: PubChem BioAssay (NCI)
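Interpolation was linear, between the two tested concentrations surrounding the appropriate level; five concentrations were tested over 48 hours in 96-well plates. TGI denotes the concentration required for complete inhibition of growth.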

How the values were obtained:
Assay in all cases: NCI-60 cell line screen, 48 h
[1] = system: SK-MEL-28 melanoma
[2] = system: UACC-257 melanoma
[3] = system: SF-268 CNS
[4] = system: SK-OV-3 ovarian
[5] = system: SF-295 CNS
[6] = system: T-47D breast
[7] = system: MDA-MB-435
[8] = system: COLO 205 colon
[9] = system: M14 melanoma
[10] = system: HOP-62 NSCLC
[11] = system: SR leukemia
[12] = system: SNB-19 CNS
[13] = system: SK-MEL-2 melanoma
[14] = system: NCI-H226 lung
[15] = system: LOX IMVI melanoma
[16] = system: SNB-75 CNS
[17] = system: MDA-N
[18] = system: A549 NSCLC
[19] = system: HS 578T breast
[20] = system: A498 renal
[21] = system: OVCAR-5 ovarian
[22] = system: MOLT-4 leukemia
[23] = system: MCF7 breast
[24] = system: SN12C renal
[25] = system: OVCAR-8 ovarian
[26] = system: OVCAR-3 ovarian
[27] = system: DU-145 prostate
[28] = system: SW-620 colon
[29] = system: HT29 colon
[30] = system: OVCAR-4 ovarian
[31] = system: HCT-15 colon
[32] = system: K-562 leukemia
[33] = system: KM12 colon
[34] = system: HCT-116 colon
[35] = system: UACC-62 melanoma
[36] = system: BT-549 breast
[37] = system: EKVX NSCLC
[38] = system: SF-539 CNS
[39] = system: NCI-H460 lung
[40] = system: MDA-MB-231 breast
[41] = system: CAKI-1 renal
[42] = system: IGROV1 ovarian
[43] = system: 786-0 renal
[44] = system: RXF 393 renal
[45] = system: NCI/ADR-RES ovarian
[46] = system: U251 CNS
[47] = system: HOP-92 NSCLC
[48] = system: NCI-H23 lung
[49] = system: CCRF-CEM leukemia
[50] = system: PC-3 prostate
[51] = system: ACHN renal
[52] = system: HL-60(TB) leukemia
[53] = system: TK-10 renal
[54] = system: HCC-2998 colon
[55] = system: UO-31 renal
[56] = system: RPMI-8226 leukemia
[57] = system: NCI-H522 lung
[58] = system: MALME-3M melanoma
[59] = system: SK-MEL-5 melanoma

Q: What does the source list for `Cc1cn(CCCCCCOC(=O)NC(CCCN=C(N)N)C(=O)O)c(=O)[nH]c1=O` (stereo not given)?
A: TGI [1]: > 100 µM; TGI [2]: > 100 µM; TGI [3]: > 100 µM; TGI [4]: > 100 µM; TGI [5]: > 100 µM; TGI [6]: > 100 µM; TGI [7]: > 100 µM; TGI [8]: > 100 µM; TGI [9]: > 100 µM; TGI [10]: > 100 µM; TGI [11]: > 100 µM; TGI [12]: > 100 µM; TGI [13]: > 100 µM; TGI [14]: > 100 µM; TGI [15]: > 100 µM; TGI [16]: > 100 µM; TGI [17]: > 100 µM; TGI [18]: > 100 µM; TGI [19]: > 100 µM; TGI [20]: > 100 µM; TGI [21]: > 100 µM; TGI [22]: > 100 µM; TGI [23]: > 100 µM; TGI [24]: > 100 µM; TGI [25]: > 100 µM; TGI [26]: > 100 µM; TGI [27]: > 100 µM; TGI [28]: > 100 µM; TGI [29]: > 100 µM; TGI [30]: > 100 µM; TGI [31]: > 100 µM; TGI [32]: > 100 µM; TGI [33]: > 100 µM; TGI [34]: > 100 µM; TGI [35]: > 100 µM; TGI [36]: > 100 µM; TGI [37]: > 100 µM; TGI [38]: > 100 µM; TGI [39]: > 100 µM; TGI [40]: > 100 µM; TGI [41]: > 100 µM; TGI [42]: > 100 µM; TGI [43]: > 100 µM; TGI [44]: > 100 µM; TGI [45]: > 100 µM; TGI [46]: > 100 µM; TGI [47]: > 100 µM; TGI [48]: > 100 µM; TGI [49]: > 100 µM; TGI [50]: > 100 µM; TGI [51]: > 100 µM; TGI [52]: > 100 µM; TGI [53]: > 100 µM; TGI [54]: > 100 µM; TGI [55]: > 100 µM; TGI [56]: > 100 µM

Q: For `O=C(O)c1c(-c2ccccc2)c(=O)[nH]c2ccccc12`, which TGI [1] is on record?
A: > 100 µM

Q: And the TGI [2]?
A: > 100 µM

Q: And the TGI [3]?
A: > 100 µM

Q: And the TGI [4]?
A: > 100 µM

Q: And the TGI [5]?
A: > 100 µM

Q: What about the TGI [6] of the same compound?
A: > 100 µM

Q: What about the TGI [7] of the same compound?
A: > 100 µM

Q: What about the TGI [8] of the same compound?
A: > 100 µM

Q: And the TGI [9]?
A: > 100 µM

Q: What about the TGI [10] of the same compound?
A: > 100 µM

Q: What about the TGI [11] of the same compound?
A: > 100 µM

Q: And the TGI [12]?
A: > 100 µM

Q: What about the TGI [13] of the same compound?
A: > 100 µM

Q: And the TGI [14]?
A: > 100 µM

Q: What about the TGI [57] of the same compound?
A: > 100 µM

Q: What about the TGI [15] of the same compound?
A: > 100 µM

Q: What about the TGI [16] of the same compound?
A: > 100 µM

Q: What about the TGI [17] of the same compound?
A: > 100 µM

Q: And the TGI [18]?
A: > 100 µM

Q: And the TGI [19]?
A: > 100 µM

Q: What about the TGI [20] of the same compound?
A: > 100 µM

Q: What about the TGI [21] of the same compound?
A: > 100 µM

Q: And the TGI [22]?
A: > 100 µM

Q: And the TGI [23]?
A: > 100 µM

Q: What about the TGI [24] of the same compound?
A: > 100 µM

Q: What about the TGI [25] of the same compound?
A: > 100 µM

Q: And the TGI [26]?
A: > 100 µM

Q: And the TGI [27]?
A: > 100 µM

Q: And the TGI [58]?
A: > 100 µM

Q: What about the TGI [28] of the same compound?
A: > 100 µM

Q: And the TGI [29]?
A: > 100 µM

Q: And the TGI [30]?
A: > 100 µM

Q: What about the TGI [31] of the same compound?
A: > 100 µM

Q: What about the TGI [32] of the same compound?
A: > 100 µM

Q: And the TGI [33]?
A: > 100 µM

Q: What about the TGI [34] of the same compound?
A: > 100 µM

Q: And the TGI [35]?
A: > 100 µM

Q: What about the TGI [36] of the same compound?
A: > 100 µM

Q: What about the TGI [37] of the same compound?
A: > 100 µM

Q: And the TGI [39]?
A: > 100 µM

Q: What about the TGI [59] of the same compound?
A: > 100 µM

Q: And the TGI [40]?
A: > 100 µM

Q: What about the TGI [42] of the same compound?
A: > 100 µM

Q: And the TGI [43]?
A: > 100 µM

Q: What about the TGI [44] of the same compound?
A: > 100 µM

Q: And the TGI [45]?
A: > 100 µM

Q: And the TGI [46]?
A: > 100 µM

Q: What about the TGI [48] of the same compound?
A: > 100 µM

Q: What about the TGI [49] of the same compound?
A: > 100 µM

Q: What about the TGI [50] of the same compound?
A: > 100 µM

Q: What about the TGI [51] of the same compound?
A: > 100 µM

Q: What about the TGI [52] of the same compound?
A: > 100 µM

Q: And the TGI [53]?
A: > 100 µM

Q: And the TGI [54]?
A: > 100 µM

Q: What about the TGI [55] of the same compound?
A: > 100 µM

Q: And the TGI [56]?
A: > 100 µM

Q: Which results are given for `O=C(CCN1CCCCC1)Nc1ccc2sc3ccccc3c(=O)c2n1`?
A: TGI [1]: 33.8 µM; TGI [2]: 46.3 µM; TGI [3]: 43.3 µM; TGI [4]: 48.7 µM; TGI [5]: 45.7 µM; TGI [6]: 93.6 µM; TGI [7]: 25.8 µM; TGI [8]: 24.5 µM; TGI [9]: 27.3 µM; TGI [10]: 29.8 µM; TGI [11]: 39 µM; TGI [12]: 47.7 µM; TGI [57]: 25.9 µM; TGI [15]: 24.8 µM; TGI [16]: 23 µM; TGI [17]: 28.9 µM; TGI [18]: 35.3 µM; TGI [19]: 41.5 µM; TGI [21]: 43 µM; TGI [22]: 18.8 µM; TGI [23]: 57.5 µM; TGI [24]: 52.4 µM; TGI [26]: 33.7 µM; TGI [27]: 46.1 µM; TGI [58]: 43.6 µM; TGI [28]: 33.2 µM; TGI [29]: > 100 µM; TGI [30]: 41.9 µM; TGI [31]: 46.6 µM; TGI [32]: 28.6 µM; TGI [33]: 34 µM; TGI [34]: 22.9 µM; TGI [35]: 30.1 µM; TGI [36]: 37.2 µM; TGI [37]: 84 µM; TGI [38]: 31.6 µM; TGI [39]: 42.1 µM; TGI [59]: 61.9 µM; TGI [40]: 44.4 µM; TGI [41]: 33.6 µM; TGI [42]: 31.3 µM; TGI [43]: 28.5 µM; TGI [45]: 73.9 µM; TGI [46]: 30.3 µM; TGI [47]: 1.79 µM; TGI [49]: 54 µM; TGI [50]: 30.3 µM; TGI [51]: 52.7 µM; TGI [52]: 19.2 µM; TGI [53]: 46.9 µM; TGI [54]: 30 µM; TGI [55]: 22.1 µM; TGI [56]: 24.8 µM
